Type in all cases: physicochemical
Data set [1] in a line: Solubility and stability of aspacytarabine free base and acid salt in aqueous media. The text has this: Thus, there is an unmet need for a stable and highly concentrated solutions and/or high dosage composition comprising aspacytarabine.
Data set [2] in a line: Solubility and stability of aspacytarabine hydrochloride salt in 3% aqueous solutions of stabilizers/solubilizers after 24 hours (Table 2). On the procedure: In another study, aspacytarabine hydrochloride salt was added to 3% aqueous solution of different stabilizers/solubilizers (See Table 2) at pH˜5.
A short description of data set [3]: Solubility of aspacytarabine in different solubilizers/stabilizers (Table 1, FIG. 1). Conditions: thermodynamic from solid, read-out: Conc (solubility of aspacytarabine); for solubility at 24 h: after 24 hours, room temperature. The procedure:
FIG. 1 depicts solubility (mg/ml) of aspacytarabine with (i) Tween 20, 1% (non-linear polymer); (ii) PEG 400 (neat); (iii) an aqueous solution including 1% w/w poloxamer; (iv) an aqueous solution including 2% w/w poloxamer; and (v) an aqueous solution including 1% w/w poloxamer and 5% w/w PVP, where “P188” is poloxamer 188 and “PVP” is polyvinylpyrrolidone. The solubility was measured after 24 hours in room temperature at pH 4.5.
Aspacytarabine or its hydrochloride salt was stirred with various ingredients in various conditions (separate experiment for each component/condition) in order to prepare compositions thereof. […] Among components tested were organic solvents (e.g. glycerol, ethanol, polyethylene glycol (PEG, e.g. PEG 400), dimethylacetamide and propylene glycol) and polymers (e.g. Polyoxyethylated 12-hydroxystearic acid, Polyethylene glycol, sorbitan monolaurate, polyvinylpyrrolidone (PVP), triblock copolymer of polyethylene/propylene oxide (poloxamer) and cyclodextrin and/or derivatives thereof). […] See comparative results in FIG. 1 and Table 1:
Compositions 1, 2a-2d, 3 as described in Example 2 were dissolved in an aqueous solution at room temperature. Composition 4 is aspacytarabine in neat PEG 400.

The mark [4] stands for this setting: hydrochloride salt in 3% aqueous PVP 10 kDa + PEG 300, pH~5, room temperature.
Where [5] appears, read: hydrochloride salt in 3% aqueous Poloxamer 188 + PEG 300, pH~5, room temperature.
The mark [6] stands for this setting: hydrochloride salt in 3% aqueous Poloxamer 188, pH~5, room temperature.
Where [7] appears, read: hydrochloride salt, control without stabilizers and/or solubilizer, pH~5, room temperature.

Consider 1 compound from US20230090683A1, “ASPACYTARABINE PHARMACEUTICAL COMPOSITIONS AND USES THEREOF” (Biosight Ltd., priority 2020, published 2023).

Converted amounts (≈) assume the structure as drawn. Like-named read-outs stand apart in the source and are kept apart here.

The solubility is the concentration that dissolves in the medium under given conditions. Take `N[C@@H](CC(=O)Nc1ccn([C@@H]2O[C@H](CO)[C@@H](O)[C@@H]2O)c(=O)n1)C(=O)O` [aspacytarabine, (S)-2-amino-4-((1-((2R,3S,4S,5R)-3,4-dihydroxy-5-(hydroxymethyl)tetrahydrofuran-2-yl)-2-oxo-1,2-dihydropyrimidin-4-yl)amino)-4-oxobutanoic acid]: in data set [1], the “solubility in aqueous media” value is reported as “low solubility”. Further, the “Concentration after 24 h” value in data set [2] (setting [4]) was 91600 ± 8400 µg/mL; in data set [2] (setting [5]) it was 80600 ± 2200 µg/mL; in data set [2] (setting [6]) it was 81800 ± 3200 µg/mL; in data set [2] (setting [7]) it was 17200 ± 400 µg/mL. Besides, the Initial appearance entry in data set [2] (setting [4]), in data set [2] (setting [5]), in data set [2] (setting [6]) and in data set [2] (setting [7]) was “Clear” throughout. For the same compound, the Initial concentration came out at 87.1 ± 0.0 mg/mL in data set [2] (setting [4]), 87.3 ± 0.4 mg/mL in data set [2] (setting [5]), 87.3 ± 0.2 mg/mL in data set [2] (setting [6]) and 86.6 ± 1.1 mg/mL in data set [2] (setting [7]). The “Appearance after 24 h” value in data set [2] (setting [5]) and in data set [2] (setting [6]) was “Clear” in each case. For the same compound, the solubility at 24 h in data set [3] (1% Tween 20, aqueous with cosolvent or surfactant or cyclodextrin, solubilizer/stabilizer Tween 20 (1%, non-linear polymer), pH 4.5) is 14.3 mg/mL (≈ 40 mM); in data set [3] (aqueous solution with 1% w/w poloxamer 188, aqueous with cosolvent or surfactant or cyclodextrin, solubilizer/stabilizer Poloxamer 1% w/w aqueous solution, pH 4.5) it was 95.3 mg/mL (≈ 266 mM); in data set [3] (aqueous solution with 1% w/w poloxamer 188 and 5% w/w PVP, aqueous with cosolvent or surfactant or cyclodextrin, solubilizer/stabilizer Poloxamer 1% + 5% PVP aqueous solution, pH 4.5), 90.9 mg/mL; in data set [3] (aqueous solution with 2% w/w poloxamer 188, aqueous with cosolvent or surfactant or cyclodextrin, solubilizer/stabilizer Poloxamer 2% w/w aqueous solution, pH 4.5) it was 94.9 mg/mL (≈ 265 mM); in data set [3] (neat PEG 400, pH 4.5, organic solvent or mixture, solubilizer/stabilizer PEG400 (neat)) it was 50.5 mg/mL (≈ 141 mM). The solubility in data set [3] (Kolliphor ELP as solubilizer/stabilizer, aqueous with cosolvent or surfactant or cyclodextrin, solubilizer/stabilizer Kolliphor ELP) turned out to be 17.8 mg/mL (≈ 49.7 mM); in data set [3] (Solutol HS15 as solubilizer/stabilizer, aqueous with cosolvent or surfactant or cyclodextrin, solubilizer/stabilizer Solutol HS15) it was 16.1 mg/mL (≈ 45.1 mM).
